In publication PMC6691761, “Potential multifunctional agents with anti-hepatoma and anti-inflammation properties by inhibiting NF-кB activation” (Journal of Enzyme Inhibition and Medicinal Chemistry, 2019):

Legend:
[1] = test system: human normal hepatic cell line (LO2); assay: Toxicity to normal cells, MTT assay, LO2; format: cell-based; details: 24 h
Description: (§1) Compounds 83–102 were screened against human neoplastic cell lines, such as human breast cancer cells (MCF-7), human colon cancer cells (HCT116), human lung carcinoma cells (A549), human gastric adenocarcinoma cells (SGC7901), human liver hepatocellular carcinoma cell line (HepG2), human cervical carcinoma cells (HeLa), human acute mononuclear granulocyte leukaemia (THP-1), and human normal hepatic cell line (LO2) using modified MTT assay. All the cells were obtained from the American Type Culture Collection (ATCC, Manassas, VA). The cells were cultured in DMEM or 1640. Positive controls (Doxorubicin (DOX) and Curcumin) and BAPs were initially dissolved in dimethyl sulphoxide (DMSO). Experimental concentration of DMSO was always 0.1% (v/v). The concentrations of BAPs and positive controls were 50, 20, 10, 5, 2.5, 1, 0.5, 0.1, 0.05, and 0.01 μg/mL.
(§2) The cells (1 × 10^4 cells/well) were seeded in a 96-well plate and incubated for 24 h. Cells treated with serial concentrations of drugs were incubated for another 24 h. After the media removed, 20 μL of MTT (5 mg/mL) solution was added and incubated for 4 h at 37 °C. The MTT solution was removed and then 150 μL of DMSO was added. The optical density was measured with a multi-well plate reader (TECAN, Mӓnnedorf, Switzerland) at 570 nm. The results are expressed as a decrease in the cell viability (%) in comparison to untreated controls. The concentration of each compound was examined in triplicate, and the IC50 values are expressed in Table 1.

[2] = test system: human cervical carcinoma cells (HeLa); assay: Cytotoxicity, MTT assay, HeLa; format: cell-based; details: for IC50: MTT, 24 h; for HeLa SI (selectivity index): quotient of IC50 towards LO2 cells
Description: as §1, §2

[3] = test system: human lung carcinoma cells (A549); assay: Cytotoxicity, MTT assay, A549; format: cell-based; details: for IC50: MTT, 24 h; for A549 SI (selectivity index): quotient of IC50 towards LO2 cells
Description: as §1, §2

[4] = test system: TNF-α expression in HepG2 xenografts; assay: Immunohistochemistry staining of TNF-α in HepG2 xenografts; format: in vivo, Balb/c nude mice; details: 96 5.0 mg/kg, DOX 1.0 mg/kg, versus model group
Description: (§3) The HepG2 cells xenografts were established using the Balb/c nude mice (female, 7-week-old, 17–19 g, n = 30) (Shanghai Laboratory Animal Center, Shanghai Shi, China) were used to investigate the anti-hepatoma effect of 96. Animal experiments were reviewed and approved by the Binzhou Medical University Experimental Animal Committee. Briefly, HepG2 cells (1 × 10^7/0.2 ml PBS/mouse) were inoculated subcutaneously. Three days after the inoculation, the mice were randomly divided into five groups: the saline treated group (Control), 96 (0.2 mg/kg) group, 96 (1.0 mg/kg) treated group, 96 (5.0 mg/kg) treated group, and DOX (1.0 mg/kg) treated group. 96 were dissolved in saline containing 1% of DMSO and administered intraperitoneally every 2 d for 20 days. DOX was also administered intraperitoneally every 2 d for 20 d. The body weight and HepG2 xenografts volumes were recorded from the day of treatment, and xenografts volumes were calculated using the equation: tumour volume = length×(width)[2]×π/6. At the end of the experiment, mice were sacrificed and the xenografts were obtained for western blotting, HE staining and immunohistochemistry staining.
(§4) The HepG2 xenografts tissues were embedded using the paraffin, and sectioned for HE staining and immunohistochemistry staining. HE staining was performed routinely. The immunohistochemistry staining carried out as following. […]

[5] = test system: human gastric adenocarcinoma cells (SGC7901); assay: Cytotoxicity, MTT assay, SGC7901; format: cell-based; details: for IC50: MTT, 24 h; for SGC7901 SI (selectivity index): quotient of IC50 towards LO2 cells
Description: as §1, §2

HepG2 xenografts [6] = assay: HepG2 xenografts growth in nude mice; format: in vivo, Balb/c nude mice; details: 1.0 mg/kg intraperitoneally every 2 d for 20 days
Description: as §3

[7] = test system: human acute mononuclear granulocyte leukaemia (THP-1); assay: Cytotoxicity, MTT assay, THP-1; format: cell-based; details: for IC50: MTT, 24 h; for THP-1 SI (selectivity index): quotient of IC50 towards LO2 cells
Description: as §1, §2

HepG2 xenografts [8] = assay: HE staining of HepG2 xenografts; format: in vivo, Balb/c nude mice
Description: as §3
The HepG2 xenografts tissues were embedded using the paraffin, and sectioned for HE staining and immunohistochemistry staining. HE staining was performed routinely. The immunohistochemistry staining carried out as following. Briefly, the processed sections were incubated with the primary antibodies: Bcl-2 and TNF-α (NOVUS BIOLOGICALS) at 4 °C overnight. After washing, the anti-rabbit peroxidase-conjugated secondary antibody (Sigma-Aldrich, St. Louis, MO) was incubated for 1 h at RT. After washing with PBS, the cells were visualized using the 3,3'-diaminobenzidine (DAB) solution under the light microscope. The cell images were taken using a light microscopy (Olympus, Tokyo, Japan).

[9] = test system: human liver hepatocellular carcinoma cell line (HepG2); assay: Cytotoxicity, MTT assay, HepG2; format: cell-based; details: for IC50: MTT, 24 h; for HepG2 SI (selectivity index): quotient of IC50 towards LO2 cells
Description: as §1, §2

[10] = test system: Bcl-2 expression in HepG2 xenografts; assay: Immunohistochemistry staining of Bcl-2 in HepG2 xenografts; format: in vivo, Balb/c nude mice; details: 96 5.0 mg/kg, DOX 1.0 mg/kg, versus model group
Description: as §3, §4

[11] = test system: human colon cancer cells (HCT116); assay: Cytotoxicity, MTT assay, HCT116; format: cell-based; details: for IC50: MTT, 24 h; for HCT116 SI (selectivity index): quotient of IC50 towards LO2 cells
Description: as §1, §2

[12] = test system: human breast cancer cells (MCF-7); assay: Cytotoxicity, MTT assay, MCF-7; format: cell-based; details: for IC50: MTT, 24 h; for MCF-7 SI (selectivity index): quotient of IC50 towards LO2 cells
Description: as §1, §2

[13] = test system: TNF-α production in LPS-stimulated RAW264.7 cells; assay: TNF-α production in LPS-stimulated RAW264.7 cells, ELISA; format: cell-based
Description: The anti-inflammatory activities of BAPs were evaluated by ELISA. After pretreated with 30 μM of positive drug pyrrolidinedithiocarbamate (PDTC) or 6 μM of BAPs for 2 h, cells were treated with LPS (1.0 μg/mL) for 22 h. The culture media were collected and centrifuged for detecting the expression levels of TNF-α by an ELISA kit (eBioScience, San Diego, CA).
TNF-α is a common pro-inflammatory factors that can be produced by LPS-stimulated RAW264.7 macrophage[14]^,[24]. In order to evaluate the anti-inflammatory activity of BAPs, the effect of BAPs on TNF-α production in LPS-stimulated RAW264.7 cells was detected by ELISA. […] Only 92 presented slightly lower expression of TNF-α secretion (about 57%).

[14] = BAPs 6.0 μM, PDTC 30 μM, LPS 1.0 μg/mL

## COc1cccc2c1C(=O)c1c(O)c3c(c(O)c1C2=O)C[C@@](O)(C(=O)CO)C[C@@H]3O[C@H]1C[C@H](N)[C@H](O)[C@H](C)O1 [DOX, Doxorubicin, reference compound]
[1]; Homo sapiens
  IC50: 4.7 ± 0.7 µM
[2]; Homo sapiens, HeLa
  IC50: 7 ± 0.3 µM
[2]
  HeLa SI (selectivity index): 0.7
[3]; Homo sapiens, A549, 24 h
  IC50: 3.4 ± 0.4 µM
[3]
  A549 SI (selectivity index): 1.4
[4]
  TNF-α expression, immunohistochemistry: significantly reduced
[5]; Homo sapiens, SGC-7901
  IC50: 3.3 ± 0.5 µM
[5]
  SGC7901 SI (selectivity index): 1.4
HepG2 xenografts [6]
  Growth of HepG2 xenografts: significantly inhibited the growth of HepG2 xenografts
[7]; Homo sapiens, THP-1, 24 h
  IC50: 9.5 ± 0.8 µM
[7]
  THP-1 SI (selectivity index): 0.5
HepG2 xenografts [8]; 96 5.0 mg/kg, DOX 1.0 mg/kg
  Fracted cells, HE staining: a plenty of fracted cells
HepG2 xenografts [8]; HepG2 xenografts, versus model group
  Histopathological change of cell nucleus, HE staining: made the HepG2 cell nucleus wrinkled
[9]; Homo sapiens, HepG2, 24 h
  IC50: 1.2 ± 0.1 µM
[9]
  HepG2 SI (selectivity index): 3.9
[10]
  Bcl-2 expression, immunohistochemistry: significantly reduced
[11]; Homo sapiens, HCT-116
  IC50: 3.5 ± 0.1 µM
[11]
  HCT116 SI (selectivity index): 1.3
[12]; Homo sapiens, MCF7
  IC50: 2.8 ± 0.7 µM
[12]
  MCF-7 SI (selectivity index): 1.7

## CN1C/C(=C\c2cccc(N)c2)C(=O)/C(=C/c2ccccc2F)C1 [Compound 92, (3E,5E)-3-(3-aminobenzylidene)-5-(2-fluorobenzylidene)-1-methylpiperidin-4-one]
[1]; Homo sapiens
  IC50: 18.9 ± 0.7 µM
[2]; Homo sapiens, HeLa
  IC50: 2.5 ± 0.2 µM
[3]; Homo sapiens, A549, 24 h
  IC50: 2.2 ± 0.1 µM
[3]
  A549 SI (selectivity index): 8.6
[5]; Homo sapiens, SGC-7901
  IC50: 2.8 ± 0.2 µM
[5]
  SGC7901 SI (selectivity index): 6.8
[7]; Homo sapiens, THP-1, 24 h
  IC50: 1.2 ± 0.2 µM
[9]; Homo sapiens, HepG2, 24 h
  IC50: 1.1 ± 0.1 µM
[13]; 6.0 μM, 2 h pretreatment, LPS 1.0 μg/mL 22 h, ELISA
  TNF-α secretion (percent of LPS control): about 57%
[11]; Homo sapiens, HCT-116
  IC50: 3.1 ± 0.3 µM
[12]; Homo sapiens, MCF7
  IC50: 2.8 ± 0.3 µM
[12]
  MCF-7 SI (selectivity index): 6.8

## CN1CC(=Cc2cccc(N=Cc3cc(F)ccc3O)c2)C(=O)C(=Cc2ccccc2F)C1 [Compound 93]
[1]
  IC50: 15.1 ± 0.7 µM
[2]
  IC50: 3 ± 0.1 µM
  HeLa SI (selectivity index): 5.0
[3]
  IC50: 3.7 ± 0.1 µM
  A549 SI (selectivity index): 4.1
[5]
  IC50: 2.8 ± 0.5 µM
  SGC7901 SI (selectivity index): 5.4
[7]
  IC50: 2.4 ± 0.5 µM
  THP-1 SI (selectivity index): 6.3
[9]
  IC50: 2.2 ± 0.2 µM
  HepG2 SI (selectivity index): 6.9
[13]; [14]
  Inhibition of TNF-α secretion compared with PDTC (in words): superior to PDTC group
  TNF-α secretion: 45%
[11]
  IC50: 2.5 ± 1.8 µM
  HCT116 SI (selectivity index): 6.0
[12]
  IC50: 3.8 ± 0.9 µM
  MCF-7 SI (selectivity index): 4.0

## CN1CC(=Cc2cccc(N=Cc3cc([N+](=O)[O-])ccc3F)c2)C(=O)C(=Cc2ccccc2F)C1 [Compound 97]
[1]
  IC50: 11.8 ± 0.4 µM
[2]
  IC50: 5.1 ± 1.2 µM
  HeLa SI (selectivity index): 2.3
[3]
  IC50: 5.7 ± 0.4 µM
  A549 SI (selectivity index): 2.1
[5]
  IC50: 3.4 ± 0.8 µM
  SGC7901 SI (selectivity index): 3.5
[7]
  IC50: 8.1 ± 0.4 µM
  THP-1 SI (selectivity index): 1.5
[9]
  IC50: 4.2 ± 0.5 µM
  HepG2 SI (selectivity index): 2.8
[13]; [14]
  TNF-α secretion: 45%
[11]
  IC50: 11.7 ± 0.2 µM
  HCT116 SI (selectivity index): 1.0
[12]
  IC50: 10.7 ± 0.1 µM
  MCF-7 SI (selectivity index): 1.1

## CN1CC(=Cc2cccc(N=Cc3ccc(O)c(O)c3O)c2)C(=O)C(=Cc2ccccc2F)C1 [Compound 100]
[1]
  IC50: 19.8 ± 0.3 µM
[2]
  IC50: 11.9 ± 0.2 µM
  HeLa SI (selectivity index): 1.7
[3]
  IC50: 1.9 ± 0.2 µM
  A549 SI (selectivity index): 10.4
[5]
  IC50: 3.6 ± 0.1 µM
  SGC7901 SI (selectivity index): 5.5
[7]
  IC50: 7.7 ± 0.1 µM
  THP-1 SI (selectivity index): 2.6
[9]
  IC50: 8.8 ± 0.4 µM
  HepG2 SI (selectivity index): 2.3
[13]; [14]
  TNF-α secretion: 45%
[11]
  IC50: 11.9 ± 0.1 µM
  HCT116 SI (selectivity index): 1.7
[12]
  IC50: 7.7 ± 0.2 µM
  MCF-7 SI (selectivity index): 2.6

## CN1CC(=Cc2cccc(N=Cc3cc(O)ccc3O)c2)C(=O)C(=Cc2ccccc2F)C1 [Compound 99]
[1]
  IC50: 15.6 ± 0.4 µM
[2]
  IC50: 15.3 ± 1.1 µM
  HeLa SI (selectivity index): 1.0
[3]
  IC50: 4.4 ± 0.1 µM
  A549 SI (selectivity index): 3.5
[5]
  IC50: 4.7 ± 0.3 µM
  SGC7901 SI (selectivity index): 3.3
[7]
  IC50: 7.8 ± 0.4 µM
  THP-1 SI (selectivity index): 2.0
[9]
  IC50: 8.2 ± 0.1 µM
  HepG2 SI (selectivity index): 1.9
[11]
  IC50: 7.42 ± 0.1 µM
  HCT116 SI (selectivity index): 2.1
[12]
  IC50: 5.9 ± 0.2 µM
  MCF-7 SI (selectivity index): 2.6

## CN1C/C(=C\c2cccc([N+](=O)[O-])c2)C(=O)/C(=C/c2cc(F)ccc2F)C1 [Compound 86]
[1]
  IC50: 21.3 ± 0.4 µM
[2]
  IC50: 11.5 ± 0.8 µM
  HeLa SI (selectivity index): 1.9
[3]
  IC50: 9.3 ± 0.4 µM
  A549 SI (selectivity index): 2.3
[5]
  IC50: 20.5 ± 0.5 µM
  SGC7901 SI (selectivity index): 1.0
[7]
  IC50: 7 ± 0.2 µM
  THP-1 SI (selectivity index): 3.0
[9]
  IC50: 9.2 ± 0.4 µM
  HepG2 SI (selectivity index): 2.3
[11]
  IC50: 10.5 ± 0.9 µM
  HCT116 SI (selectivity index): 2.0
[12]
  IC50: 11.1 ± 0.7 µM
  MCF-7 SI (selectivity index): 1.9
